Values belong to the compound of their own block, whether it stands above or below them. Calls of active or inactive are those of the source. No cut-off for these calls is given here.
How the values were obtained:
[1] = molecular target: Human immunodeficiency virus type 1 reverse transcriptase (Human immunodeficiency virus 1, UniProt Q72547); assay: Inhibition of HIV1 3B reverse transcriptase activity
Protease = Protease (Human immunodeficiency virus 1, UniProt Q9YQ12); assay: (§1) Inhibition of HIV1 3B recombinant protease
Chain of Protease (Q9YQ12 whole entry): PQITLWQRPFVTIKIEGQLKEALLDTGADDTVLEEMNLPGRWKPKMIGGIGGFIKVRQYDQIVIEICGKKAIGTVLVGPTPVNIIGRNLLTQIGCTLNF

[2] = test system: Human immunodeficiency virus 1; assay: Antiviral activity against HIV1 3B in human H9 cells assessed as inhibition of p24 antigen production at 5 uM by ELISA; format: functional, organism-based
[3] = Therapeutic index, ratio of CC50 for human CEM-SS cells to IC50 for HIV1 induced lytic effect; format: cell-based; conditions: read-out: TI
[4] = test system: Human immunodeficiency virus 1; assay: Antiviral activity against HIV1 3B in human H9 cells assessed as inhibition of p24 antigen production at 10 uM by ELISA; format: functional; conditions: Human immunodeficiency virus 1, 3B
CEM-SS = assay: Cytotoxicity against human CEM-SS cells up to 500 by MTT assay; format: cell-based
[5] = molecular target: Human immunodeficiency virus type 1 reverse transcriptase (Human immunodeficiency virus 1) (UniProt Q72547); assay: Inhibition of HIV1 3B reverse transcriptase activity at 1 uM
[6] = molecular target: Human immunodeficiency virus type 1 reverse transcriptase (Human immunodeficiency virus 1) (UniProt Q72547); assay: Inhibition of HIV1 3B reverse transcriptase activity at 10 uM
[7] = Cytotoxicity against human CEM-SS cells after 72 hrs by MTT assay; format: cell-based
[8] = test system: Human immunodeficiency virus 1; assay: Antiviral activity against HIV1 3B in human CEM-SS cells assessed as inhibition of viral-induced lytic effect at 25 uM after 7 days by MTT assay; format: functional; parameters: scale not given: the % may be the effect or the level left
[9] = test system: Human immunodeficiency virus 1; assay: Antiviral activity against HIV1 3B in human H9 cells assessed as inhibition of p24 gag protein production after 4 days by Western blot analysis; format: functional, organism-based
[10] = molecular target: Protease (Human immunodeficiency virus 1) (UniProt Q9YQ12); assay: as §1
Chain of Protease (Human immunodeficiency virus 1) (Q9YQ12 as listed by the source): as the sequence (Q9YQ12 whole entry) above

[11] = test system: Human immunodeficiency virus 1; assay: Antiviral activity against HIV1 3B in human H9 cells assessed as inhibition of p24 antigen production at 25 uM by ELISA; format: functional, organism-based
[12] = test system: Human immunodeficiency virus 1; assay: Antiviral activity against HIV1 3B in human H9 cells assessed as inhibition of p41 gag protein production after 4 days by Western blot analysis; format: functional, organism-based
[13] = test system: Human immunodeficiency virus 1; assay: Antiviral activity against HIV1 3B in human C8166 cells assessed as inhibition of viral-induced syncytia formation at 25 uM after 72 hrs; format: functional; parameters: scale not given: the % may be the effect or the level left
[14] = test system: Human immunodeficiency virus 1; assay: Antiviral activity against HIV1 3B in human H9 cells assessed as inhibition of p55 gag protein production after 4 days by Western blot analysis; format: functional, organism-based
[15] = test system: Human immunodeficiency virus 1; assay: Antiviral activity against HIV1 3B in human C8166 cells assessed as inhibition of viral-induced syncytia formation after 72 hrs; format: functional, organism-based; conditions: Human immunodeficiency virus 1, 3B, C8166, 72 h
[16] = test system: Human immunodeficiency virus 1; assay: Antiviral activity against HIV1 3B in human CEM-SS cells assessed as inhibition of viral-induced lytic effect after 7 days by MTT assay; format: functional, organism-based; conditions: Human immunodeficiency virus 1, 3B, 168 h
[17] = test system: Human immunodeficiency virus 1; assay: Antiviral activity against HIV1 3B in human H9 cells assessed as inhibition of p24 antigen production by ELISA; format: functional, organism-based; conditions: Human immunodeficiency virus 1, 3B
[18] = test system: Human immunodeficiency virus 1; assay: Antiviral activity against HIV13B in human C8166 co-cultivated with H9 cells assessed as inhibition of viral-induced syncytia formation at 25 uM after 72 hrs; format: functional, 3B; parameters: scale not given: the % may be the effect or the level left
[19] = test system: Human immunodeficiency virus 1; assay: Antiviral activity against HIV1 3B in human C8166 co-cultivated with H9 cells assessed as inhibition of cell-cell fusion after 72 hrs; format: functional, organism-based
[20] = test system: Human immunodeficiency virus 1; assay: Antiviral activity against HIV1 3B in human C8166 co-cultivated with H9 cells assessed as inhibition of cell-virus fusion after 72 hrs; format: functional, organism-based

- EC50 [1]: 510 nM
- IC50 (Protease): 81500 nM
SMILES: Oc1cc(O)cc(Oc2c(O)cc(O)c3c2Oc2c(cc(O)c(-c4c(O)cc5c(c4O)Oc4c(Oc6cc(O)cc(O)c6)c(O)cc(O)c4O5)c2O)O3)c1

SMILES: Cc1cn([C@H]2C[C@H](N=[N+]=[N-])[C@@H](CO)O2)c(=O)[nH]c1=O
- Activity [2]: Active

- inhibition [5]: 50.5%
- inhibition [6]: 96.3%
- EC50 [1]: 1070 nM
- Activity [10]: inactive
- EC50 [15]: 1720 nM
- EC50 [17]: 1260 nM
SMILES: Oc1cc(O)cc(Oc2c(O)cc(O)c3c2Oc2c(O)cc(O)c(-c4c(O)cc(O)c5c4Oc4c(O)cc(O)c(Oc6cc(O)cc(O)c6)c4O5)c2O3)c1
- selectivity ratio [3]: 393
- inhibition at 10 µM [4]: 90%
- Activity (CEM-SS): Non-toxic
- CC50 at 72 h [7]: 484000 nM
- Activity [8]: >96%
- Activity [9]: Dose-dependent effect
- Activity [11]: Active
- Activity [12]: Active
- Activity [13]: 88%
- Activity [14]: Active
- EC50 [16]: 1230 nM
- Activity [18]: 80%
- Activity [19]: Active
- Activity [20]: Active
